Some test systems named below: BT-549; EKVX; HCT-116; HCT-15; M14; MOLT-4; Malme-3M; NCI-H226; NCI-H23; NCI/ADR-RES; SF-268; SF-539; SK-MEL-28; SK-MEL-5; SNB-75; SR; T47D; U-251; UACC-62.
What all share (assay): NCI anticancer screen, dose series, 48 h

Molecules are shown by their SMILES.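 Dose response: 5 concentrations. Exposure: 48 h. Format: 96-well plates. Endpoint: linear interpolation; highest concentration if not reached. GI50 = concentration required for 50% inhibition of growth.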 Activity calls are given as the source filed them. Rule as the data show it: active = GI50 up to about 1.1 µM and inactive = higher.

`Cn1c(=O)c2c(ncn2CN2CCN(Cn3cnc4c3c(=O)n(C)c(=O)n4C)CC2)n(C)c1=O`: the GI50 is 62.2 µM (inactive) with BT-549; 29.1 µM (inactive) with EKVX; 16.9 µM (inactive) in the assay on HCT-116; 27.6 µM in the assay on HCT-15; 38.5 µM (inactive) in the assay on M14; 17 µM (inactive) in the assay on MOLT-4. In addition, the GI50 in the assay on Malme-3M is 73.6 µM (inactive); in the assay on NCI-H226, > 100 µM (inactive); with NCI-H23 it was 65.9 µM (inactive); in the assay with NCI/ADR-RES it was > 100 µM (inactive); with SF-268, 50.9 µM (inactive); with SF-539 it was 56.2 µM (inactive). The GI50 in the assay with SK-MEL-28 is 48.1 µM (inactive); in the assay with SK-MEL-5 it was > 100 µM (inactive); in the assay on SNB-75 it was 74.8 µM (inactive); in the assay on SR it was 28.6 µM (inactive); in the assay on T47D, 30.5 µM (inactive); with U-251, > 100 µM (inactive). For the same compound, the GI50 in the assay on UACC-62 was 45.7 µM (inactive).

As to `CCOC(=O)OC1C(Br)C2CCC1(C)C2(C)C` (stereo unspecified), the GI50 is 17.2 µM (inactive) in the assay with BT-549; 15.5 µM (inactive) with EKVX; 6.44 µM (inactive) in the assay on HCT-116; 13.7 µM with HCT-15; 12.6 µM (inactive) in the assay with M14; 4.6 µM (inactive) with MOLT-4. Also, the GI50 in the assay with Malme-3M is 16.7 µM (inactive); in the assay with NCI-H226, 12 µM (inactive); with NCI-H23, 17.2 µM (inactive); in the assay on NCI/ADR-RES it was 15.5 µM (inactive); with SF-268 it was 13.7 µM (inactive); in the assay on SF-539 it was 14.1 µM (inactive). Besides, the GI50 is 15.7 µM (inactive) in the assay with SK-MEL-28; 14.5 µM (inactive) with SK-MEL-5; 11.1 µM (inactive) with SNB-75; 2.39 µM (inactive) with SR; 15.6 µM (inactive) with T47D; 13 µM (inactive) in the assay on U-251. In addition, in the assay with UACC-62, the GI50 was 17.7 µM (inactive).

As for `Clc1ccc2c(NCCCCN3OC3c3ccccc3)ccnc2c1` (stereo unspecified), the GI50 in the assay with BT-549 is 13.4 µM (inactive); in the assay on EKVX, 21.8 µM (inactive); in the assay on HCT-116 it was 2.06 µM (inactive); with HCT-15, 10.4 µM; with M14, 3.23 µM (inactive); in the assay with MOLT-4 it was 2.15 µM (inactive). Further, the GI50 was 8.41 µM (inactive) with Malme-3M; 18.4 µM (inactive) in the assay on NCI-H226; 15.8 µM (inactive) with NCI-H23; 18.5 µM (inactive) in the assay on NCI/ADR-RES; 8.07 µM (inactive) in the assay with SF-268; 1.98 µM (inactive) in the assay with SF-539. The GI50 with SK-MEL-28 is 3.64 µM (inactive); in the assay with SK-MEL-5 it was 4.79 µM (inactive); in the assay with SNB-75, 5.82 µM (inactive); with SR it was 1.69 µM (inactive); in the assay on T47D, 5.53 µM (inactive); with U-251, 3.4 µM (inactive). Moreover, in the assay on UACC-62, the GI50 is 14.1 µM (inactive).

Regarding `CN(C)CC1CCCCCC(Br)C1=O` (stereo unspecified), the GI50 in the assay on BT-549 was 11.7 µM (inactive); with EKVX it was 15.1 µM (inactive); with HCT-116, 2.05 µM (inactive); in the assay on HCT-15 it was 9.23 µM; in the assay on M14, 15.6 µM (inactive); with MOLT-4, 0.946 µM (active). Also, the GI50 in the assay on Malme-3M was 6.5 µM (inactive); in the assay on NCI-H226, 20.7 µM (inactive); with NCI-H23, 13.4 µM (inactive); in the assay on NCI/ADR-RES, 13.9 µM (inactive); with SF-268, 24.2 µM (inactive); in the assay with SF-539, 17.3 µM (inactive). The GI50 in the assay with SK-MEL-28 was 15.9 µM (inactive); with SK-MEL-5 it was 15.5 µM (inactive); with SNB-75, 37.2 µM (inactive); in the assay on SR it was 1.64 µM (inactive); with T47D it was 9.23 µM (inactive); in the assay on U-251, 19.6 µM (inactive). In addition, in the assay with UACC-62, the GI50 is 18.7 µM (inactive).
